Source: PMC9526870 (iScience, 2022)

Tested on: SARS-CoV-2
Format: cell-based

SMILES: CCC(CC)COC(=O)[C@H](C)N[P@](=O)(OC[C@H]1O[C@@](C#N)(c2ccc3c(N)ncnn23)[C@H](O)[C@@H]1O)Oc1ccccc1 [remdesivir]
- SARS-CoV-2 fluorescence signal in host cells (in words): depletion of the SARS-CoV-2 fluorescence signal
